Assay results as given in ChEMBL document CHEMBL3994609, “Model-Based Discovery of Synthetic Agonists for the Zn2+-Sensing G-Protein-Coupled Receptor 39 (GPR39) Reveals Novel Biological Functions” (J Med Chem, 2017).

How the values were obtained:
[1] = biological target: T1, G-protein coupled receptor 39 (Homo sapiens, UniProt O43194); assay: Agonist activity at human GPR39 expressed in HEK293 cells co-expressing Galphaq assessed as myo-[2-3H]inositol phosphate accumulation in presence of 10 uM Zn2+ measured after 75 mins by scintillation proximity assay; type: functional, cell-based
T1 sequence (O43194 whole entry): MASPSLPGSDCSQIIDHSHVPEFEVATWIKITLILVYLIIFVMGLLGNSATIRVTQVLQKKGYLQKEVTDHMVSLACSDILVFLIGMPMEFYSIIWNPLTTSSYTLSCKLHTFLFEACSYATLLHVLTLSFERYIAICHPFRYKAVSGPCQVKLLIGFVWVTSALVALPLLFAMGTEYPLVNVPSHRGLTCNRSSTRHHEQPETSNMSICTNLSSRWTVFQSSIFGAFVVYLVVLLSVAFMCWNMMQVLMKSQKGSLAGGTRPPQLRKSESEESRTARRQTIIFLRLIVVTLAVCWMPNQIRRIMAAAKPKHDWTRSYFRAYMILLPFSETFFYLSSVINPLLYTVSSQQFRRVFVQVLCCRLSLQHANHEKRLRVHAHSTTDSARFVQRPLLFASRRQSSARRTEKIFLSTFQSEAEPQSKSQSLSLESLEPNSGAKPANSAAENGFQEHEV

[2] = biological target: T1, G-protein coupled receptor 39; assay: Agonist activity at human GPR39 expressed in HEK293 cells co-expressing Galphaq assessed as myo-[2-3H]inositol phosphate accumulation measured after 75 mins by scintillation proximity assay; type: functional, cell-based

SMILES | EC50 [1] | EC50 [2]
Cc1nn(-c2ncnc3nc[nH]c23)c2c1C(C(=O)N(C)c1ccccc1)CC(=O)N2 (stereo not drawn) | 32 nM | 5220 nM
Cc1cc(C)n(CCOC2CC(=O)Nc3c2c(C)nn3-c2ncnc3nc[nH]c23)n1 (stereo not drawn) | 16 nM | 2000 nM
Cc1nn(-c2ncnc3nc[nH]c23)c2c1C(C(=O)Nc1ccccc1)CC(=O)N2 (stereo not drawn) | 10 nM | 
Cc1nn(-c2ncnc3nc[nH]c23)c2c1C(OCc1ccc(Cl)cc1Cl)CC(=O)N2 (stereo not drawn) | 4 nM | 243 nM
Cc1nn(-c2ncnc3nc[nH]c23)c2c1C(NC(=O)c1ccccc1)CC(=O)N2 (stereo not drawn) | 3 nM | 158 nM
Cc1nn(-c2ncnc3nc[nH]c23)c2c1C(OCc1ccc(C(C)C)cc1)CC(=O)N2 (stereo not drawn) | 5 nM | 1690 nM
Cc1nn(-c2ncnc3nc[nH]c23)c2c1C(OCc1ccc(C#N)cc1)CC(=O)N2 (stereo not drawn) | 4 nM | 60 nM
Cc1nn(-c2ncnc3nc[nH]c23)c2c1C(C(=O)NCc1ccccc1)CC(=O)N2 (stereo not drawn) | 5 nM | 2930 nM
Cc1nn(-c2ncnc3nc[nH]c23)c2c1C(NC(=O)Cc1ccccc1)CC(=O)N2 (stereo not drawn) | 3 nM | 418 nM
CCCCCCCCOC1CC(=O)Nc2c1c(C)nn2-c1ncnc2nc[nH]c12 (stereo not drawn) | 8 nM | 388 nM
Cc1nn(-c2ncnc3nc[nH]c23)c2c1C(C(=O)NCc1ccc3c(c1)OCO3)CC(=O)N2 (stereo not drawn) | 7 nM | 791 nM
Cc1nn(-c2ncnc3nc[nH]c23)c2c1C(C(=O)NCc1ccc(F)cc1)CC(=O)N2 (stereo not drawn) | 4 nM | 1220 nM
Cc1nn(-c2ncnc3nc[nH]c23)c2c1C(c1ccc(F)cc1F)CC(=O)N2 (stereo not drawn) |  | 460 nM
COc1ccc(CCOC2CC(=O)Nc3c2c(C)nn3-c2ncnc3nc[nH]c23)cc1 (stereo not drawn) | 2 nM | 70 nM
Cc1cc(C)nc(-n2nc(C)c3c2NC(=O)CC3c2ccc(F)cc2F)n1 (stereo not drawn) |  | > 10000 nM
Cc1nn(-c2ncnc3nc[nH]c23)c2c1C(OCCc1ccccc1)CC(=O)N2 (stereo not drawn) | 3 nM | 40 nM

SMILES | EC50 [1] | EC50 [2]
Cc1noc(C)c1COC1CC(=O)Nc2c1c(C)nn2-c1ncnc2nc[nH]c12 (stereo not drawn) | 5 nM | 
Cc1nn(-c2ncnc3nc[nH]c23)c2c1C(OC1CCCC1)CC(=O)N2 (stereo not drawn) | 2 nM | 62 nM
Cc1nn(-c2ncnc3nc[nH]c23)c2c1C(OCCn1nccc1C)CC(=O)N2 (stereo not drawn) | 10 nM | 1620 nM
Cc1nn(-c2ncnc3nc[nH]c23)c2c1C(OCC(=O)c1ccc(F)cc1)CC(=O)N2 (stereo not drawn) | 3 nM | 973 nM
Cc1nn(-c2ncnc3nc[nH]c23)c2c1C(NC(=O)Cc1cccs1)CC(=O)N2 (stereo not drawn) | 3 nM | 244 nM
Cc1nn(-c2ncnc3nc[nH]c23)c2c1C(C(=O)N(C)c1nccs1)CC(=O)N2 (stereo not drawn) | 18 nM | 3300 nM
Cc1nn(-c2ncnc3nc[nH]c23)c2c1C(OC(=O)c1ccc(F)cc1)CC(=O)N2 (stereo not drawn) | 4 nM | 245 nM
Cc1nn(-c2ncnc3nc[nH]c23)c2c1C(OCC(C)C)CC(=O)N2 (stereo not drawn) | 4 nM | 111 nM
Cc1nn(-c2ncnc3nc[nH]c23)c2c1C(OCc1ccc(F)cc1)CC(=O)N2 (stereo not drawn) | 1 nM | 126 nM
Cc1nn(-c2ncnc3nc[nH]c23)c2c1C(OCc1ccccc1Cl)CC(=O)N2 (stereo not drawn) | 2 nM | 47 nM
CCC(C(=O)NC1CC(=O)Nc2c1c(C)nn2-c1ncnc2nc[nH]c12)c1ccccc1 (stereo not drawn) | 5 nM | 79 nM
Cc1nn(-c2ncnc3nc[nH]c23)c2c1C(OCc1ccccc1F)CC(=O)N2 (stereo not drawn) | 4 nM | 78 nM
Cc1nn(-c2ncnc3nc[nH]c23)c2c1C(OC(=O)Cc1ccccc1)CC(=O)N2 (stereo not drawn) | 6 nM | 381 nM
Cc1nn(-c2ncnc3nc[nH]c23)c2c1C(OCc1ccccc1C#N)CC(=O)N2 (stereo not drawn) | 8 nM | 127 nM
Cc1nn(-c2ncnc3nc[nH]c23)c2c1C(OCCn1cccn1)CC(=O)N2 (stereo not drawn) | 16 nM | 2260 nM
